target: HEK-293 cells transfected with dox-inducible human wild type FGFR2 (Homo sapiens (Human), UniProt P21802); assay: FGFR2 pFGFR cell assay (ELISA); type: cell-based; details: HEK-293 dox-inducible FGFR2, 1 hour compound, 30 ng/ml FGF-acidic
Method in brief: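 Doxycycline-induced (1 μg/ml) cells preincubated with compound (1:3 serial dilutions, top final 5 μM) for 1 h at 37 °C, then stimulated with 30 ng/ml FGF-acidic for 5 min. Lysates assayed by ELISA capturing total FGFR2 and detecting phosphotyrosine (OD 450 nm). POC relative to no-compound and control-compound wells; IC50 from 4-parameter logistic fit.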

HEK-293 cells transfected with dox-inducible human wild type FGFR2, sequence (P21802 22-821): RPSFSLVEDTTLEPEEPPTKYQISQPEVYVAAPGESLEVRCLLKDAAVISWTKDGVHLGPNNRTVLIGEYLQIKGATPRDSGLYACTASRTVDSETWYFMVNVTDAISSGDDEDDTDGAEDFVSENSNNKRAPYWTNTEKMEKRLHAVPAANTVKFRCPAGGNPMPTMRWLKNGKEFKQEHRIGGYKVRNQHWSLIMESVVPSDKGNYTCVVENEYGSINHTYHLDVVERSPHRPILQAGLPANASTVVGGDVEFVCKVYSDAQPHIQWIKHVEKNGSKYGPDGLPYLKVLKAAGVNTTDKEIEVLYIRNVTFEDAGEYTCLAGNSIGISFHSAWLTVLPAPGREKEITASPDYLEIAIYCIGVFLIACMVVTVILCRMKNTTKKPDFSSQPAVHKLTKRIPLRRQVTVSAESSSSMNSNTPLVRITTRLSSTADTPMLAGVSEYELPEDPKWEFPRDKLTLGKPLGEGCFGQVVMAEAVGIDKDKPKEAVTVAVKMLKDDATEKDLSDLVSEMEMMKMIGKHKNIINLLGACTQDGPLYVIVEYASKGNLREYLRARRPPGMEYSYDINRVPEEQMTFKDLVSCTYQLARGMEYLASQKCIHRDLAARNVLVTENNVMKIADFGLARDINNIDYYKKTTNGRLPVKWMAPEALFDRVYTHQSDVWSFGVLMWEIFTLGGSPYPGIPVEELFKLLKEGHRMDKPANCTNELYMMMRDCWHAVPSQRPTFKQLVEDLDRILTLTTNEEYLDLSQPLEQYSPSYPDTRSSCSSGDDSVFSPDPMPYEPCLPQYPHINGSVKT

Structure (SMILES) | IC50
C=CC(=O)N1CC(OC)(C(=O)N2CCC(n3ncc(-c4cc(OC)c5c(C#N)cnn5c4)c3C)CC2)C1 [Example 88, 6-(1-(1-(1-acryloyl-3-methoxyazetidine-3-carbonyl)piperidin-4-yl)-5-methyl-1H-pyrazol-4-yl)-4-methoxypyrazolo[1,5-a]pyridine-3-carbonitrile] | 143 nM
C=CC(=O)N1CC(C(=O)N2CC3CCC(C2)N3c2ccc(-c3cc(OC)c4c(C#N)cnn4c3)cn2)C1 [Example 51, 6-(6-(3-(1-acryloylazetidine-3-carbonyl)-3,8-diazabicyclo[3.2.1]octan-8-yl)pyridin-3-yl)-4-methoxypyrazolo[1,5-a]pyridine-3-carbonitrile] | 433 nM
C=CC(=O)N1CC(C(=O)N2C3CC2CN(c2ccc(-c4cc(OC)c5c(C#N)cnn5c4)cn2)C3)C1 [Example 52, 6-(6-(6-(1-acryloylazetidine-3-carbonyl)-3,6-diazabicyclo[3.1.1]heptan-3-yl)pyridin-3-yl)-4-methoxypyrazolo[1,5-a]pyridine-3-carbonitrile] | 766 nM
C=CC(=O)N1CC(C(=O)N2C3CCC2CN(c2ccc(-c4cc(OC)c5c(C#N)cnn5c4)cn2)C3)C1 [Example 50, 6-(6-(8-(1-acryloylazetidine-3-carbonyl)-3,8-diazabicyclo[3.2.1]octan-3-yl)pyridin-3-yl)-4-methoxypyrazolo[1,5-a]pyridine-3-carbonitrile] | 178 nM

Now from value to compound:

IC50 | Structure (SMILES)
61 nM | C=CC(=O)N1CC(F)(C(=O)N2CCC(n3ncc(-c4cc(OC)c5c(C#N)cnn5c4)c3C)CC2)C1 [Example 85, 6-(1-(1-(1-acryloyl-3-fluoroazetidine-3-carbonyl)piperidin-4-yl)-5-methyl-1H-pyrazol-4-yl)-4-methoxypyrazolo[1,5-a]pyridine-3-carbonitrile]
79 nM | C=CC(=O)N1CC(C(=O)N2CCC(n3cc(-c4cc(OC)c5c(C#N)cnn5c4)cn3)CC2)C1(C)C (centres unmarked) [Example 43, 6-(1-(1-(1-acryloyl-2,2-dimethylazetidine-3-carbonyl)piperidin-4-yl)-1H-pyrazol-4-yl)-4-methoxypyrazolo[1,5-a]pyridine-3-carbonitrile]
108 nM | C=CC(=O)N1CC(CN2CCC(n3ncc(-c4cc(OC)c5c(C#N)cnn5c4)c3C)CC2)(OC)C1 [Example 91, 6-(1-(1-((1-acryloyl-3-methoxyazetidin-3-yl)methyl)piperidin-4-yl)-5-methyl-1H-pyrazol-4-yl)-4-methoxypyrazolo[1,5-a]pyridine-3-carbonitrile]
96 nM | C=CC(=O)N1CC(CN2CCC(n3ncc(-c4cc(OC)c5c(C#N)cnn5c4)c3C)CC2)C1 [Example 89, 6-(1-(1-((1-acryloylazetidin-3-yl)methyl)piperidin-4-yl)-5-methyl-1H-pyrazol-4-yl)-4-methoxypyrazolo[1,5-a]pyridine-3-carbonitrile]
160 nM | C=CS(=O)(=O)Nc1cccc(C(=O)N2CCC(n3cc(-c4cc(OC)c5c(C#N)cnn5c4)cn3)CC2)c1 [Example 188, N-(3-(4-(4-(3-cyano-4-methoxypyrazolo[1,5-a]pyridin-6-yl)-1H-pyrazol-1-yl)piperidine-1-carbonyl)phenyl)eth-enesulfonamide]
109 nM | C=CC(=O)N1CC(C)(CN2CCC(n3ncc(-c4cc(OC)c5c(C#N)cnn5c4)c3C)CC2)C1 [Example 90, 6-(1-(1-((1-acryloyl-3-methylazetidin-3-yl)methyl)piperidin-4-yl)-5-methyl-1H-pyrazol-4-yl)-4-methoxypyrazolo[1,5-a]pyridine-3-carbonitrile]

target: HEK-293 cells transfected with dox-inducible human wild type FGFR1 (Homo sapiens (Human), UniProt P11362); assay: FGFR1 pFGFR cell assay (ELISA); type: cell-based; details: HEK-293 dox-inducible FGFR1, 1 hour compound
Sequence (P11362 22-822): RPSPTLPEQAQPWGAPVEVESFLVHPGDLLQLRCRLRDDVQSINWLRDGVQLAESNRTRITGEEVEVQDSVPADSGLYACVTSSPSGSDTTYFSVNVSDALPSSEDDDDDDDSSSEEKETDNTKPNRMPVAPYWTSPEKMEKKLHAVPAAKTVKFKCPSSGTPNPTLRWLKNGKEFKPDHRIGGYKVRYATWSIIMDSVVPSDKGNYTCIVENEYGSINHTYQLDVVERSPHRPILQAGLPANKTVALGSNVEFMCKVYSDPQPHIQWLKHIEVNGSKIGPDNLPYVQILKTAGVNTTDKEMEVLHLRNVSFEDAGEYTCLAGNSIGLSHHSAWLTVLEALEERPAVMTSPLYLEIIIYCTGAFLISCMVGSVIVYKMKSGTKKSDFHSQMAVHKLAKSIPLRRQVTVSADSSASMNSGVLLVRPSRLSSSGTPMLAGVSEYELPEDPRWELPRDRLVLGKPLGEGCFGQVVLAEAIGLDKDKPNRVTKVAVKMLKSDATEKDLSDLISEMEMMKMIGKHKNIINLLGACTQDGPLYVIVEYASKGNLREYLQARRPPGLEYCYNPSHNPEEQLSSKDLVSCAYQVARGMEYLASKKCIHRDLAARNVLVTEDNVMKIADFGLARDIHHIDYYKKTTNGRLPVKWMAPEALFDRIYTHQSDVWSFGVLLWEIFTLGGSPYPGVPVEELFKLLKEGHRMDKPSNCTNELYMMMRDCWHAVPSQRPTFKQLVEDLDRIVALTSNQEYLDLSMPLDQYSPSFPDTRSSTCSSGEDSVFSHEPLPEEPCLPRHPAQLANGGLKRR
Experimental: FGFR1 pFGFR Cell Assay: • HEK-293 cells transfected with dox-inducible human wild type FGFR1 (SEQ ID NO: 1) were plated in a collagen or poly-D-lysine coated 96 well flat bottom plates at 4×10^5 cells/well in complete DMEM medium containing 10% FBS and 1 μg/ml doxycycline and allowed to attach for 24 h at 37° C., 5% CO2. Cells were treated with compound using 1:3 serial dilutions with a maximum final concentration of 5 μM. Compound was incubated on cells for 1 hour at 37° C., 5% CO2. Medium was removed, and cells were lysed with lysis buffer containing phosphatase and protease inhibitors. Phospho FGFR1 was measured by ELISA (R&D Systems cat. no. DYC5079 or Cell Signaling Technology cat. no. 12909). The ELISA captures total FGFR1 and detects total phospho tyrosine. Optical density was measured for each well using a Versamax reader at a wavelength of 450 nm. 100 POC was determined using no test compounds and 0 POC was determined using a control compound. The POC values were fit to a 4-parameter logistic curve as a function of the concentration of the compound, and the IC50 value is the point where the curve crosses 50 POC.

IC50 | Structure (SMILES)
123 nM | C=CC(=O)Nc1ccc(C(=O)N2CCC(n3cc(-c4cc(OC)c5c(C#N)cnn5c4)cn3)CC2)cc1 [Example 177, N-(4-(4-(4-(3-cyano-4-methoxypyrazolo[1,5-a]pyridin-6-yl)-1H-pyrazol-1-yl)piperidine-1-carbonyl)phenyl)acrylamide]
